Key:
[1] = tested on: medulloblastoma; settings: one patient; initial response, then no durable response and relapse of the tumor (Rudin et al., 2009); cited from earlier work
[2] = molecular target: SMO-D473H (Homo sapiens, UniProt Q99835, D473H); settings: SMO-D473H mutation from relapsed metastatic MB tumor; cited from earlier work
[3] = molecular target: T1, SMO-G529S (Homo sapiens, UniProt Q99835, G529S); assay: GLI-luciferase reporter assay, vismodegib dose response; assay type: cell-based; settings: C3H10T1/2 cells transfected with SMO-G529S compared with SMO-WT; FIG. 7
T1 construct: expressed in transfected cells; host or cells: C3H10T1/2 cells (ATCC), transient transfection with GeneJuice
Experimental: Six hours later, cells from one well were trypsinized and redistributed over four wells of a 12-well plate. After 16 hours the FBS content of the culture medium was reduced to 0.5% to induce formation of primary cilia, and small molecule Hh inhibitors were added at indicated concentrations. Firefly luciferase activity was determined 24 hours later with the Dual-Glo Luciferase Assay System (Promega) and read using a Wallac EnVision plate reader (Perkin Elmer). Values were divided by renilla luciferase activities to normalize for transfection efficiency. Individual experiments were carried out in duplicate or triplicate and repeated at least once. Dose response data were fit to a 4-parameter equation in GraphPad Prism: […]

[4] = tested on: metastatic basal cell carcinoma (mBCC); assay: Vismodegib treatment of metastatic basal cell carcinoma (mBCC) patients, overall response assessment; assay type: in vivo, human
Text: Clinical responses to targeted therapies (e.g., cancer therapies) can be short-lived due to the acquisition of genetic alterations that confer drug resistance. Identification of resistance mechanisms will guide novel therapeutic strategies. Inappropriate Hh signaling is linked to several cancers, including basal cell carcinoma (BCC). Loss-of-function mutations in PTCH (˜90%) and activating mutations in SMO (˜10%) are the primary drivers in BCC. Clinical mechanisms of resistance to vismodegib (GDC-0449) were identified by assessing vismodegibsensitivity and mutation status of BCCs from patients using the FoundationOne™ next-generation sequencing (NGS) platform. FIG. 1 lists characteristics of the mBCC (metastatic basal cell carcinoma) patients treated with vismodegib.
Patient Treatment Histories
008: patient with metastatic basal cell carcinoma (mBCC). No prior surgery for BCC was reported. Prior systemic therapy for metastatic BCC included the following agent: anthracycline chemotherapy. Sites of metastases at the time of screening included soft tissue in the right hemi pelvis. Measurable lesions were identified on the skin/soft tissue next to the right OS ilium, next to the right femur and ventral surface of the OS sacrum. Non-measurable lesions were identified on the bone destruction region in OS ilium and OS sacrum. The patient received their first dose of 150 mg vismodegib Study Day 1.
001: patient with metastatic basal cell carcinoma (mBCC). Prior surgery for BCC included 6 skin neoplasm excisions. No prior topical or systemic therapy for BCC was reported. Sites of metastases at the time of screening included skin of head. Measurable lesions were identified on skin of head (lymph nodes [besides trachea and infracarinal]). The patient received their first dose of 150 mg vismodegib on Study Day 1.
002: patient with metastatic basal cell carcinoma (mBCC). Prior surgery for BCC included skin neoplasm excision. No prior topical or systemic therapy for BCC was reported. Sites of metastases at the time of screening (24 Jan. 2012) included bone. Measurable lesions were identified on lung (S 5 right side and S 10 left side), os sacrum, vertebral 9 rib, right femur, occipital, and lymph nodes (mediastenum, retrocaval). The patient received their first dose of 150 mg vismodegib on Study Day 1.
011: patient with metastatic basal cell carcinoma (mBCC). No prior surgery for BCC was reported. No prior topical or systemic therapy for BCC was reported. Sites of metastases at the time of screening included bone and lung. Measurable lesion was identified on the skin of trunk. The patient received their first dose of 150 mg vismodegib on Study Day 1.
005: patient with metastatic basal cell carcinoma (mBCC). Prior surgery for BCC included skin neoplasm excision. Prior radiation directed to head and neck (total dose: 50 Gy). No prior topical or systemic therapy for BCC was reported. Sites of metastasis at the time of screening included neck, sternum and left clavicle. Measurable lesions were identified on neck (supraclavicular region), lung (segment 10 and 3). Non-measurable lesion was identified on sternocleidomastoid muscle and bone (left clavicle and sternum). The patient received their first dose of 150 mg vismodegib on Study Day 1.

[5] = tested on: advanced BCC; settings: cited from earlier work

Sequence of SMO-D473H (Q99835 28-787 D473H): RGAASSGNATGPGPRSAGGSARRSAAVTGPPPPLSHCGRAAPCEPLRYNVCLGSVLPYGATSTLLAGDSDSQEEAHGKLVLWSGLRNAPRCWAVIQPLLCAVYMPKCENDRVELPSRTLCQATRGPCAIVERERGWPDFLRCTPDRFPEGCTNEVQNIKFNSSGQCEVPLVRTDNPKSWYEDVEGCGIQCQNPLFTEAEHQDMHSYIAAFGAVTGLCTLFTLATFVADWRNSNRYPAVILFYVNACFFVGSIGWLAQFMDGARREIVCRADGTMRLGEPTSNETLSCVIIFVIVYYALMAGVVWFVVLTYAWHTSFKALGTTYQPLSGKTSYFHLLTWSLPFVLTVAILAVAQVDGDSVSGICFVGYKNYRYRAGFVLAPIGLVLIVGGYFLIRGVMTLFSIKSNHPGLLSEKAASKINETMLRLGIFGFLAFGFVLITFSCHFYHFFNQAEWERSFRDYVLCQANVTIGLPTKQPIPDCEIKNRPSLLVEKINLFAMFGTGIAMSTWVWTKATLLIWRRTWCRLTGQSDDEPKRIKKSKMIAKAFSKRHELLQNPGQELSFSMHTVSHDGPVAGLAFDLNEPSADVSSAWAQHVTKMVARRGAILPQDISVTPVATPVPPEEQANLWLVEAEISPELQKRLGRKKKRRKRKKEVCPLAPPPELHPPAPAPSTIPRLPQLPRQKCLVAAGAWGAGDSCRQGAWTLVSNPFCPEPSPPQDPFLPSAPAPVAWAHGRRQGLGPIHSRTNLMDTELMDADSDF
T1 sequence (Q99835 28-787 G529S): as the sequence (Q99835 28-787 D473H) above, with H446D, G502S counted along it

With CS(=O)(=O)c1ccc(C(=O)Nc2ccc(Cl)c(-c3ccccn3)c2)c(Cl)c1 [vismodegib] as the compound, how does the response to treatment [1] read?
Its response to treatment is “dramatic response”.

And the “drug binding in vitro” value [2]?
Its value is “abrogate drug binding”.

And the “sensitivity to vismodegib (Gli-luciferase reporter activity)” value [3]?
Its value is “reduced sensitivity”.

And the “first PR on target lesions” value ([4]; patient 001, 150 mg vismodegib)?
The value was 397 Study day.

What about the “overall response assessment revealed disease progression” value ([4]; patient 001, 150 mg vismodegib) of the same compound?
Its value is 516 Study Day.

What about the “overall response assessment showed disease progression” value ([4]; patient 002, 150 mg vismodegib) of the same compound?
Its value is 399 Study Day.

And the “first PR” value ([4]; patient 002, 150 mg vismodegib, cycle 7)?
Its value is 172 Study day.

And the “overall response assessment showed progressive disease” value ([4]; patient 005, 150 mg vismodegib)?
Its value is 336 Study Day.

And the “overall response assessment showed disease progression” value ([4]; patient 008, 150 mg vismodegib)?
The value was 673 Study Day.

What about the “overall response assessment revealed progressive disease” value ([4]; patient 011, 150 mg vismodegib) of the same compound?
Its value is 310 Study Day.

And the response during treatment ([4]; patient 011, 150 mg vismodegib, cycle 11, Study day 282)?
The response during treatment was “stable disease”.

What about the “clinical outcome of treated BCC patients” value ([5]; majority of BCC patients (Sekulic et al., 2012)) of the same compound?
Its value is “clinical benefit, including both complete and partial responses”.

What about the “advanced BCC patients developing resistance to vismodegib” value ([5]; within the first year of treatment, preliminary estimate (Chang and Oro, 2012)) of the same compound?
Its value is “up to 20%”.
